Experimental data as given in patent publication US8058306B2, “Phenyl pyrrole aminoguanidine derivatives” (Action Pharma A/S, priority 2006, dated 2011).

Tests used:
IL10 = assay: Inhibition of LPS-induced IL10 production in rats; assay type: in vivo, rat; settings: for Serum IL10 measured 120 after initiation of LPS infusion: mean ± SE, N = 6; for reduction of serum level of IL10 compared to vehicle treatment: 5.0 mg/kg dose level; for dose level of maximal effect (IL10): doses tested 0.1, 1.0, 5.0 mg/kg i.v.
Protocol: (§1) Experimental animals. Female Wistar rats (˜250 g) were obtained from the Charles River, Sulzfeld, Germany, and housed in a temperature- (22-24° C.) and moisture-controlled (40-70%) room with a 12 h light-dark cycle (light on from 6:00 A.M. to 6:00 P.M.). The rats were maintained on a standard rodent diet with 140 mmol/kg of sodium, 275 mmol/kg potassium and 23% protein (Altromin International, Lage, Germany) and had free access to water.
(§2) Animal preparation. […] After instrumentation, the animals were housed individually for 7-10 days until the day of the experiment.
(§3) Experimental protocol. Prior to the experiments all rats were adapted to the restraining cage used for the experiments by training. On the day of the experiment, the animal were transferred to a restraining cage, and an intravenous infusion of vehicle solution containing 150 mM glucose was started. The infusion rate was 0.5 ml/h throughout the experiment. After a short adaptation period, infusion of lipopolysaccharide (LPS) was started. LPS (E. coli serotype 0127 B8, L 3129, Sigma, St. Louis, USA) was given at a dose of 4 mg/kg body weight delivered as an i.v. infusion over 1 hour.
(§4) Arterial blood samples of 0.3 ml were taken 120 minutes after start of the LPS infusion.
(§5) In addition to LPS infusion all rats were treated with a bolus injection of:
(§6) Vehicle (0.5 mL 20% PEG200) or test compound in one of the following doses:
(§7) 0.1; 1.0; 5.0 mg/kg given intravenously 5 min prior to initiation of the LPS infusion.
(§8) Test compounds: Compound 1 of the invention (FIG. 1A, structure no. 1), compound 2 of the invention (FIG. 1D, structure no. 19) and compound 3 of the invention (FIG. 1I, structure no. 53).
(§9) Measurement of TNF-α and IL-10 in plasma: The blood samples were collected in a prechilled test tube with 0.5 mM EDTA, pH 7.4, and 20×10^6 IU/ml aprotinin. After centrifugation at 4° C., plasma samples were transferred to pre-chilled test tubes and stored at −20° C. for later measurements of TNF-α and IL-10. TNF-α and Il-10 in plasma were determined by an ELISA (Biotrak, Amersham, UK).
(§10) Statistical analyses. Results are presented as means±SE. A two-way ANOVA for repeated measures was used to test for differences between groups. In case of P<0.05, the differences between corresponding periods are evaluated by unpaired t-tests with Bonferroni's correction of the level of significance.

TNF-α = assay: Inhibition of LPS-induced TNF-α production in rats; assay type: in vivo, rat; settings: for Serum TNF-α measured 120 after initiation of LPS infusion: mean ± SE, N = 6; for reduction of serum level of TNF-α compared to vehicle treatment: 5.0 mg/kg dose level, 120 min after initiation of LPS infusion
Protocol: as §1, §2, §3, §4, §5, §6, §7, §8, §9, §10

human MC3 receptor = target: T1, human MC3 receptor (Homo sapiens, UniProt P41968); assay: [125I]-NDP-MSH radio-ligand binding, MC3 (h) receptor (recombinant CHO cells); settings: 60 min/37° C.
T1 construct: expressed in transfected cells; host or cells: CHO cells
T1 sequence (P41968 whole entry): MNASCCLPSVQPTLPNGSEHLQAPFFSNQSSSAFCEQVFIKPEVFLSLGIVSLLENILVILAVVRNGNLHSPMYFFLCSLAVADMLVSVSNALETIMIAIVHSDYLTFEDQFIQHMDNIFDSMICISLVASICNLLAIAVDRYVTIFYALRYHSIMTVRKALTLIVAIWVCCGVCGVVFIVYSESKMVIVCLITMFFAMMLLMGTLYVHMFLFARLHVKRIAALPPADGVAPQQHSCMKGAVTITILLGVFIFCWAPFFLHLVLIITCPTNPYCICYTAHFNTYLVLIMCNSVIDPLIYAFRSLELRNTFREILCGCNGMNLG
Protocol: (§11) Determination of binding affinities for MC receptors was performed by [^125I]-[Nle4,D-Phe7]α-MSH ([^125I]-NDP-MSH) radio-ligand binding. In short, murine B16-F1 melanoma cells expressing MC1, but not other MC receptors, were used for binding affinity studies against the murine MC1 receptor (Siegrist et al.; 1988, J. Recept. Res., 8(1-4):323-43). For human MC3, MC4 and MC5 receptor affinities human recombinant CHO cells were used (Schioth et al. 1997, Neuropeptides 31:565-71, 1997). Cells were suspended in HEPES buffer and by use of microwell plates radio-ligands, as well as test compound, in the concentration range of 10^−10 to 10^−6 were added. After incubation at 37° C. (22° C. for the MC1 receptor assay) separation of bound and free [^125I]-NDP-MSH was done by multiple washings with buffer.
(§12) The results were expressed as a percent of control specific binding obtained in the presence of the test compounds. The IC50 values (concentration causing a half-maximal inhibition of control specific binding) and Hill coefficients (nH) were determined by non-linear regression analysis of the competition curves using Hill equation curve fitting. The inhibition constants (Ki) were calculated from the Cheng Prusoff equation (Ki=IC50/(1+(L/KD)), where L=concentration of radio-ligand in the assay, and KD=affinity of the radio-ligand for the receptor).

human MC4 receptor = target: T2, human MC4 receptor (Homo sapiens, UniProt P32245); assay: [125I]-NDP-MSH radio-ligand binding, MC4 (h) receptor (recombinant CHO cells); settings: 120 min/37° C.
T2 construct: expressed in transfected cells; host or cells: CHO cells
T2 sequence (P32245 whole entry): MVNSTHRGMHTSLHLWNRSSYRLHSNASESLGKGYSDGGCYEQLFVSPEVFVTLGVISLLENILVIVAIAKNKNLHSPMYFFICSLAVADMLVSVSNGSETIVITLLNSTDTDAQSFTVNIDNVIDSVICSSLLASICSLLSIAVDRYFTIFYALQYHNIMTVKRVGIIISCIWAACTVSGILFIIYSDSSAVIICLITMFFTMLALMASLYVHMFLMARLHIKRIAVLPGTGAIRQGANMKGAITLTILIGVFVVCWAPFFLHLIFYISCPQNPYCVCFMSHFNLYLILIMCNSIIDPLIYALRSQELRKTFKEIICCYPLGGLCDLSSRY
Protocol: as §11, §12

human MC5 receptor = target: T3, human MC5 receptor (Homo sapiens, UniProt P33032); assay: [125I]-NDP-MSH radio-ligand binding, MC5 (h) receptor (recombinant CHO cells); settings: 60 min/37° C.
T3 construct: expressed in transfected cells; host or cells: CHO cells
T3 sequence (P33032 whole entry): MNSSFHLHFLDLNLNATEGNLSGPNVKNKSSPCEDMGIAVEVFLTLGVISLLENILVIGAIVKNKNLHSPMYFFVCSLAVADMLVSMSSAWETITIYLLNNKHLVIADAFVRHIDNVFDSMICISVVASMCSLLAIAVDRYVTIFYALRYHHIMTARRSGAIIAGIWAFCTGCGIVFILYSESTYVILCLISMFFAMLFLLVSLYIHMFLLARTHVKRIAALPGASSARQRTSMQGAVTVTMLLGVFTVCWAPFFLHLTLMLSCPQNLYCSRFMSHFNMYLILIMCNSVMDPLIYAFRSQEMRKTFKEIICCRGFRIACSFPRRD
Protocol: as §11, §12

murine MC1 receptor = target: T4, murine MC1 receptor (Mus musculus, UniProt Q01727); assay: [125I]-NDP-MSH radio-ligand binding, MC1 receptor (B16-F1 melanoma cells); settings: 90 min/22° C.
T4 construct: murine B16-F1 melanoma cells expressing MC1, but not other MC receptors, were used; endogenous in cells; host or cells: murine B16-F1 melanoma cells
T4 sequence (Q01727 whole entry): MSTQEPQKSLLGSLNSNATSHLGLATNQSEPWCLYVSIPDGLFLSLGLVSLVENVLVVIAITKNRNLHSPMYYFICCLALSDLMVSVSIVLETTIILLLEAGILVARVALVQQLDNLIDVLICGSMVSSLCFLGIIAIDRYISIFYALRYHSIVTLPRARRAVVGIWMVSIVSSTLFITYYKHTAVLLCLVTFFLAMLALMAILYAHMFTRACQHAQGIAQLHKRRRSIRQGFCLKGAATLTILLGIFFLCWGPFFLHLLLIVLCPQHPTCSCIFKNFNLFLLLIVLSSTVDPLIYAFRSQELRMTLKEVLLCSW
Protocol: as §11, §12

[1] = 0.1 mg/kg i.v. 5 min prior to LPS
[2] = 1.0 mg/kg i.v. 5 min prior to LPS
[3] = 120 min after initiation of LPS infusion
[4] = 5.0 mg/kg i.v. 5 min prior to LPS

Structure (SMILES)	Serum IL10 measured 120 after initiation of LPS infusion (IL10; [1]) [pg/mL]	Serum IL10 measured 120 after initiation of LPS infusion (IL10; [2]) [pg/mL]	reduction of serum level of IL10 compared to vehicle treatment (IL10; [3]) [%]	Serum IL10 measured 120 after initiation of LPS infusion (IL10; [4]) [pg/mL]	dose level of maximal effect (IL10) (IL10) [mg/kg]	Serum TNF-α measured 120 after initiation of LPS infusion (TNF-α; [1]) [pg/mL]	Serum TNF-α measured 120 after initiation of LPS infusion (TNF-α; [2]) [pg/mL]	Serum TNF-α measured 120 after initiation of LPS infusion (TNF-α; [4]) [pg/mL]	dose level of maximal anti-inflammatory effect (TNF-α) (TNF-α; doses tested 0.1, 1.0, 5.0 mg/kg i.v.) [mg/kg]	Ki (human MC3 receptor) [µM]	Ki (human MC4 receptor) [µM]	Ki (human MC5 receptor) [µM]	Ki (murine MC1 receptor) [µM]	reduction of serum level of TNF-α compared to vehicle treatment (TNF-α) [%]	reduction of IL10 response compared to vehicle treatment (IL10; 1.0 mg/kg dose level, 120 min after initiation of LPS infusion) [%]
N=C(N)NN=CC=Cc1cccn1-c1ccccc1[N+](=O)[O-] [Compound 2, [1-(2-nitrophenyl)-1H-pyrrol-2-yl-allylideneamino]guanidinium acetate]	7606 ± 1313	4770 ± 1387	~46	4053 ± 894	5.0	5964 ± 957	6130 ± 601	8380 ± 2694	0.1	> 1	> 1	> 1	0.36	–	–
N=C(N)NN=CC=Cc1cccn1-c1ccc(Cl)cc1 [Compound 1, [1-(4-chlorophenyl)-1H-pyrrol-2-yl-allylideneamino]guanidinium acetate]	8485 ± 960	5978 ± 890	~25	5651 ± 325	5.0	10830 ± 4031	6230 ± 1786	5800 ± 703	–	> 1	0.62	> 1	0.088	~60	–
N=C(N)NN=CC=Cc1cccn1-c1ccccc1Br [Compound 3, [1-(2-bromophenyl)-1H-pyrrol-2-yl-allylideneamino]guanidinium acetate]	5658 ± 1119	3452 ± 1091	–	3856 ± 973	1.0	10310 ± 2728	5250 ± 1113	5020 ± 862	–	0.63	0.3	> 1	0.0026	~60	~55
